From patent publication US20240270762A1, “PENICILLIN-BINDING PROTEIN INHIBITORS” (priority 2021, published 2024)
Converted amounts (≈) assume the structure as drawn.

Assays:
N. gonorrhoeae CDC-0197 = assay: Liquid broth MIC in Fastidious broth; details: Neisseria gonorrhoeae, CDC0197, read-out: Minimum Inhibitory Concentration, CDC-0197
N. gonorrhoeae WHO K = assay: Liquid broth MIC in Fastidious broth; details: Neisseria gonorrhoeae, read-out: Minimum Inhibitory Concentration, WHO K
N. gonorrhoeae WHO M = assay: Liquid broth MIC in Fastidious broth; details: Neisseria gonorrhoeae, read-out: Minimum Inhibitory Concentration, WHO M
N. gonorrhoeae WHO L = assay: Liquid broth MIC in Fastidious broth; details: Neisseria gonorrhoeae, read-out: Minimum Inhibitory Concentration, WHO L
N. gonorrhoeae MS11 = assay: Liquid broth MIC in Fastidious broth; details: Neisseria gonorrhoeae, MS11, read-out: Minimum Inhibitory Concentration, MS11
N. gonorrhoeae WHO G = assay: Liquid broth MIC in Fastidious broth; details: Neisseria gonorrhoeae, read-out: Minimum Inhibitory Concentration, WHO G
Description: Additional antibacterial testing of the series was performed in 8 reference strains of N. gonorrhoeae (ATCC 49226, FA1090, MS 11, WHO G, WHO L, WHO M, WHO K, WHO X, WHO Z, WHO Q, CDC-0197). ATCC 49226, FA1090, MS11, WHO G, WHO L, and WHO M produce wild type or wild-type like PBP2. WHO K, WHO X, WHO Z, WHO Q, and CDC-0197 produce mosaic PBP2. Liquid broth-based assays were used for antibacterial testing of PBP inhibitors in Neisseria gonorrhoeae. Briefly, cryo-preserved bacterial cultures of clinical strains were streaked for isolation on Chocolate Agar (72 g/L (2×) GC Agar Base (BD #228950) and 2% (2×) Hemoglobin was autoclaved at 121° C. for 20 minutes to sterilize. Once cooled to ˜50° C. the 2×GC Agar Base and 2× Hemoglobin solutions are combined and 1% IsoVitaleX Enrichment (BD #211876) was added to the solution). Strains were incubated at 36° C. and 5% CO2 to allow growth of colonies, 24 hours before inoculum preparation. 2-fold serial dilutions of test compounds were conducted in a 96 well plate with a final volume of 75 μL per well at 2-fold the final desired concentration in Fastidious broth (Remel #R07664). For preparation of assay inoculum, a direct suspension was prepared by aseptically swabbing 10-15 colonies from agar plates into culture tubes containing 2 mL of fresh sterile saline. After the dilution plates were set up, direct suspensions were then diluted in a cuvette containing sterile saline and the optical density was measured at 600 nm. Inocula were diluted such that 75 μL of this culture in Fastidious broth results in a starting bacterial concentration of 5×10^5 CFU/mL when added to the dilution plates. The plates were incubated for ˜24 hours at 36° C. and 5% CO2.

A. baumannii PBP1a = molecular target: T1, A. baumannii PBP1a (Acinetobacter baumannii, UniProt A0ABX6CK30); assay: Bocillin-FL competition binding via gel filtration, A. baumannii PBP1a; details: competition binding assay using Bocillin-FL via gel filtration; read-out: A. baumannii PBP1a Potency
T1 sequence (A0ABX6CK30 1-851): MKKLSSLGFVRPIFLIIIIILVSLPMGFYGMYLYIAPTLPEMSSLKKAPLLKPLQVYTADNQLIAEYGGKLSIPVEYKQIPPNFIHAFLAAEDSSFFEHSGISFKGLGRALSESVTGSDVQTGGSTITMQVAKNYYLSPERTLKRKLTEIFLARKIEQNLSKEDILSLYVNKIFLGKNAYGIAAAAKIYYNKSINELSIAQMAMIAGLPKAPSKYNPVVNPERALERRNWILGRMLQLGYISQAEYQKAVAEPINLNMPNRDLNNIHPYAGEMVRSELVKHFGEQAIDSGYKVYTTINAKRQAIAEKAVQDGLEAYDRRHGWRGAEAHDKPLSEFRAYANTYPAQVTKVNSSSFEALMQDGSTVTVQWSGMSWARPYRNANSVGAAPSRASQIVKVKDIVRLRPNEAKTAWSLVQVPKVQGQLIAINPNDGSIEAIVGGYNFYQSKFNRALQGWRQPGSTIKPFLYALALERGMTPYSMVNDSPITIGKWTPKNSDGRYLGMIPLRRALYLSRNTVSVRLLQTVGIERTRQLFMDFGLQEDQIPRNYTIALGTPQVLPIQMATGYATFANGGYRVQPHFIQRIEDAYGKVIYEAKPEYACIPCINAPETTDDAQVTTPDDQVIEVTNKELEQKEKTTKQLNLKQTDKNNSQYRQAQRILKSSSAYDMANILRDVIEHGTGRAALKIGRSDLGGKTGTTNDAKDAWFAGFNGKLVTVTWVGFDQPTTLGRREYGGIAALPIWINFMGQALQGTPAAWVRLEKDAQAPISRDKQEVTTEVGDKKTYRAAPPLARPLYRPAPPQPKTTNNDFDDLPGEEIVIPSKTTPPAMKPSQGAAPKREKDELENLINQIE
Summary of the method: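 Competitive equilibrium binding; reporter Bocillin-FL. PBP + inhibitor (titration) pre-incubated → Bocillin-FL, 15 min → gel filtration → fluorescence. EC50 from Hill fit of fraction bound vs [inhibitor].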

N. gonorrhoeae FA1090 = assay: Liquid broth MIC in Fastidious broth; details: Neisseria gonorrhoeae, FA1090, read-out: Minimum Inhibitory Concentration, FA 1090
N. gonorrhoeae WHO X = assay: Liquid broth MIC in Fastidious broth; details: Neisseria gonorrhoeae, read-out: Minimum Inhibitory Concentration, WHO X
[1] = tested on: N. gonorrhoeae ATCC 49226; assay: Liquid broth MIC in Fastidious broth; details: Neisseria gonorrhoeae, ATCC49226, read-out: Minimum Inhibitory Concentration, ATCC 49226

| Structure (SMILES) | MIC (N. gonorrhoeae CDC-0197) [µg/mL] | MIC (N. gonorrhoeae WHO K) [µg/mL] | MIC (N. gonorrhoeae WHO M) [µg/mL] | MIC (N. gonorrhoeae WHO L) [µg/mL] | MIC (N. gonorrhoeae MS11) [µg/mL] | MIC (N. gonorrhoeae WHO G) [µg/mL] | EC50 (A. baumannii PBP1a) [µM] | MIC (N. gonorrhoeae FA1090) [µg/mL] | MIC (N. gonorrhoeae WHO X) [µg/mL] | MIC [1] [µg/mL] |
| --- | --- | --- | --- | --- | --- | --- | --- | --- | --- | --- |
| O=C(NCCCS(=O)(=O)N1CCN(C(=O)NC(C(=O)N[C@H]2Cc3ccc(F)c(C(=O)O)c3OB2O)c2cc(F)c(O)c(O)c2Cl)C1=O)Nc1cccc(O)c1 (stereo partly drawn) [Example 277, (3R)-3-(2-(2-chloro-5-fluoro-3,4-dihydroxyphenyl)-2-(3-((3-(3-(3-hydroxyphenyl)ureido)propyl)sulfonyl)-2-oxoimidazolidine-1-carboxamido)acetamido)-7-fluoro-2-hydroxy-3,4-dihydro-2H-benzo[e][1,2]oxaborinine-8-carboxylic acid] | 16 to 32 (≈ 19.7 to 39.5 µM) | > 64 | 16 to 32 (≈ 19.7 to 39.5 µM) | > 64 | 16 to 32 (≈ 19.7 to 39.5 µM) | 16 to 32 (≈ 19.7 to 39.5 µM) | < 10 | 1 to 2 (≈ 1.23 to 2.47 µM) | > 64 | 16 to 32 (≈ 19.7 to 39.5 µM) |
| O=C(NCCCS(=O)(=O)N1CCN(C(=O)NC(C(=O)N[C@H]2Cc3ccc(F)c(C(=O)O)c3OB2O)c2cc(F)c(O)c(O)c2Cl)C1=O)Nc1cccnc1 (stereo partly drawn) [Example 278, (3R)-3-(2-(2-chloro-5-fluoro-3,4-dihydroxyphenyl)-2-(2-oxo-3-((3-(3-(pyridin-3-yl)ureido)propyl)sulfonyl)imidazolidine-1-carboxamido)acetamido)-7-fluoro-2-hydroxy-3,4-dihydro-2H-benzo[e][1,2]oxaborinine-8-carboxylic acid] | 16 to 32 (≈ 20.1 to 40.2 µM) | > 64 | 16 to 32 (≈ 20.1 to 40.2 µM) | > 64 | 16 to 32 (≈ 20.1 to 40.2 µM) | 16 to 32 (≈ 20.1 to 40.2 µM) | 10 to 50 | 4 to 8 (≈ 5.03 to 10.1 µM) | > 64 | 16 to 32 (≈ 20.1 to 40.2 µM) |
| O=C(NCCN1CCN(C(=O)N[C@@H](C(=O)N[C@H]2Cc3ccc(F)c(C(=O)O)c3OB2O)c2cc(F)c(O)c(O)c2Cl)C1=O)Nc1ccc(O)cc1 [Example 279, (R)-3-((R)-2-(2-chloro-5-fluoro-3,4-dihydroxyphenyl)-2-(3-(2-(3-(4-hydroxyphenyl)ureido)ethyl)-2-oxoimidazolidine-1-carboxamido)acetamido)-7-fluoro-2-hydroxy-3,4-dihydro-2H-benzo[e][1,2]oxaborinine-8-carboxylic acid] | 4 to 8 (≈ 5.46 to 10.9 µM) | 16 to 32 (≈ 21.8 to 43.7 µM) | 1 to 2 (≈ 1.36 to 2.73 µM) | 16 to 32 (≈ 21.8 to 43.7 µM) | 4 to 8 (≈ 5.46 to 10.9 µM) | 4 to 8 (≈ 5.46 to 10.9 µM) | < 10 | < 1 | > 64 | 4 to 8 (≈ 5.46 to 10.9 µM) |
| O=C(NCCCN1CCN(C(=O)NC(C(=O)N[C@H]2Cc3ccc(F)c(C(=O)O)c3OB2O)c2cc(F)c(O)c(O)c2Cl)C1=O)c1ccc(O)cc1 (stereo partly drawn) [Example 280, (3R)-3-(2-(2-chloro-5-fluoro-3,4-dihydroxyphenyl)-2-(3-(3-(4-hydroxybenzamido)propyl)-2-oxoimidazolidine-1-carboxamido)acetamido)-7-fluoro-2-hydroxy-3,4-dihydro-2H-benzo[e][1,2]oxaborinine-8-carboxylic acid] | > 64 | > 64 | 16 to 32 (≈ 21.9 to 43.7 µM) | > 64 | 16 to 32 (≈ 21.9 to 43.7 µM) | 16 to 32 (≈ 21.9 to 43.7 µM) | 10 to 50 | 4 to 8 (≈ 5.47 to 10.9 µM) | > 64 | 16 to 32 (≈ 21.9 to 43.7 µM) |
| O=C(NCCCN1CCN(C(=O)N[C@@H](C(=O)N[C@H]2Cc3ccc(F)c(C(=O)O)c3OB2O)c2cc(F)c(O)c(O)c2Cl)C1=O)Nc1ccc(O)cc1 [Example 284, (R)-3-((R)-2-(2-chloro-5-fluoro-3,4-dihydroxyphenyl)-2-(3-(3-(3-(4-hydroxyphenyl)ureido)propyl)-2-oxoimidazolidine-1-carboxamido)acetamido)-7-fluoro-2-hydroxy-3,4-dihydro-2H-benzo[e][1,2]oxaborinine-8-carboxylic acid] | 16 to 32 (≈ 21.4 to 42.8 µM) | 16 to 32 (≈ 21.4 to 42.8 µM) | 4 to 8 (≈ 5.36 to 10.7 µM) | 16 to 32 (≈ 21.4 to 42.8 µM) | 4 to 8 (≈ 5.36 to 10.7 µM) | 4 to 8 (≈ 5.36 to 10.7 µM) | < 10 | 1 to 2 (≈ 1.34 to 2.68 µM) | > 64 | 4 to 8 (≈ 5.36 to 10.7 µM) |
| O=C(NCCCN1CCN(C(=O)NC(C(=O)N[C@H]2Cc3ccc(F)c(C(=O)O)c3OB2O)c2cc(F)c(O)c(O)c2Cl)C1=O)Nc1ccncc1 (stereo partly drawn) [Example 285, (3R)-3-(2-(2-chloro-5-fluoro-3,4-dihydroxyphenyl)-2-(2-oxo-3-(3-(3-(pyridin-4-yl)ureido)propyl)imidazolidine-1-carboxamido)acetamido)-7-fluoro-2-hydroxy-3,4-dihydro-2H-benzo[e][1,2]oxaborinine-8-carboxylic acid] | > 64 | > 64 | > 64 | > 64 | > 64 | > 64 | 10 to 50 | 4 to 8 (≈ 5.47 to 10.9 µM) | > 64 | > 64 |
| O=C(NCCS(=O)(=O)N1CCN(C(=O)N[C@@H](C(=O)N[C@H]2Cc3ccc(F)c(C(=O)O)c3OB2O)c2cc(F)c(O)c(O)c2Cl)C1=O)c1ccc(O)cc1 [Example 287, (R)-3-((R)-2-(2-chloro-5-fluoro-3,4-dihydroxyphenyl)-2-(3-((2-(4-hydroxybenzamido)ethyl)sulfonyl)-2-oxoimidazolidine-1-carboxamido)acetamido)-7-fluoro-2-hydroxy-3,4-dihydro-2H-benzo[e][1,2]oxaborinine-8-carboxylic acid] | 16 to 32 (≈ 20.5 to 40.9 µM) | 16 to 32 (≈ 20.5 to 40.9 µM) | 4 to 8 (≈ 5.12 to 10.2 µM) | > 64 | 4 to 8 (≈ 5.12 to 10.2 µM) | 4 to 8 (≈ 5.12 to 10.2 µM) | 10 to 50 | 1 to 2 (≈ 1.28 to 2.56 µM) | > 64 | 4 to 8 (≈ 5.12 to 10.2 µM) |
| O=C(NCCS(=O)(=O)N1CCN(C(=O)NC(C(=O)N[C@H]2Cc3ccc(F)c(C(=O)O)c3OB2O)c2cc(F)c(O)c(O)c2Cl)C1=O)Nc1ccc(O)cc1 (stereo partly drawn) [Example 289, (3R)-3-(2-(2-chloro-5-fluoro-3,4-dihydroxyphenyl)-2-(3-((2-(3-(4-hydroxyphenyl)ureido)ethyl)sulfonyl)-2-oxoimidazolidine-1-carboxamido)acetamido)-7-fluoro-2-hydroxy-3,4-dihydro-2H-benzo[e][1,2]oxaborinine-8-carboxylic acid] | 16 to 32 (≈ 20.1 to 40.2 µM) | 16 to 32 (≈ 20.1 to 40.2 µM) | 4 to 8 (≈ 5.02 to 10 µM) | > 64 | 4 to 8 (≈ 5.02 to 10 µM) | 4 to 8 (≈ 5.02 to 10 µM) | < 10 | 1 to 2 (≈ 1.25 to 2.51 µM) | > 64 | 16 to 32 (≈ 20.1 to 40.2 µM) |
| O=C(O)c1c(F)ccc2c1OB(O)[C@@H](NC(=O)C(NC(=O)N1CCN(C3CCN(C(=O)c4cccc(O)c4)CC3)C(=O)C1=O)c1cc(F)c(O)c(O)c1Cl)C2 (stereo partly drawn) [Example 293, (3R)-3-(2-(2-chloro-5-fluoro-3,4-dihydroxyphenyl)-2-(4-(1-(3-hydroxybenzoyl)piperidin-4-yl)-2,3-dioxopiperazine-1-carboxamido)acetamido)-7-fluoro-2-hydroxy-3,4-dihydro-2H-benzo[e][1,2]oxaborinine-8-carboxylic acid] | > 64 | > 64 | 16 to 32 (≈ 20.4 to 40.7 µM) | > 64 | 16 to 32 (≈ 20.4 to 40.7 µM) | 16 to 32 (≈ 20.4 to 40.7 µM) | 10 to 50 | 1 to 2 (≈ 1.27 to 2.54 µM) | > 64 | 16 to 32 (≈ 20.4 to 40.7 µM) |
| O=C(O)c1c(F)ccc2c1OB(O)[C@@H](NC(=O)C(NC(=O)N1CCN(C3CCN(C(=O)Nc4cccc(O)c4F)CC3)C(=O)C1=O)c1cc(F)c(O)c(O)c1Cl)C2 (stereo partly drawn) [Example 478, (3R)-3-(2-(2-chloro-5-fluoro-3,4-dihydroxyphenyl)-2-(4-(1-((2-fluoro-3-hydroxyphenyl)carbamoyl)piperidin-4-yl)-2,3-dioxopiperazine-1-carboxamido)acetamido)-7-fluoro-2-hydroxy-3,4-dihydro-2H-benzo[e][1,2]oxaborinine-8-carboxylic acid] |  |  |  |  |  |  | 10 to 50 |  |  |  |
